Usually IC50 stands for the concentration that gives 50% inhibition. A higher IC50 goes with lower potency.

20 compounds from patent US20100184809A1, “Heterocyclic FXR Binding Compounds” (PHENEX PHARMACEUTICALS AG, priority 2006, published 2010) can be followed below.

The target in this assay is T1, human FXRalpha ligand binding domain (LBD) (Homo sapiens, UniProt Q96RI1).
T1 construct: made in house; host or cells: E. coli BL21(DE3), vector pDEST15
T1 sequence (Q96RI1 187-472 isoform Q96RI1-2): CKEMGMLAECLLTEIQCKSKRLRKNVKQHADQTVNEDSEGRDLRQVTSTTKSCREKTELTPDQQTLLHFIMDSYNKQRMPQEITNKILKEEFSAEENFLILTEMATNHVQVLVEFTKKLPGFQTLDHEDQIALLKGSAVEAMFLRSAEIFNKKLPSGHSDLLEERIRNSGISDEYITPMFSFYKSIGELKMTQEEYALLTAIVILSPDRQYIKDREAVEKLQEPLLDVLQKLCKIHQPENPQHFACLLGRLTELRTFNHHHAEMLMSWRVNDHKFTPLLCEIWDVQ
Kind of assay: FRET activity assay (ligand mediated cofactor peptide interaction, LANCE). It counts as biochemical. The note with it: GST-FXR-LBD / biotinylated SRC-1 peptide (676-700). As to the method: Determination of a ligand mediated cofactor peptide interaction to quantify ligand binding to the nuclear receptor Farnesoid X Receptor (FXR) was performed as follows:
Preparation of human farnesoid X receptor (FXR) alpha ligand binding domain: The human FXRalpha ligand binding domain (LBD) was expressed in E. coli strain BL21(DE3) as an N-terminally glutathione-[…] (GST) tagged fusion protein. The DNA encoding the FXR ligand binding domain was cloned into vector pDEST15 (Invitrogen). Expression was under control of an IPTG inducible T7 promoter. The amino acid boundaries of the ligand binding domain were amino acids 187-472 of Database entry NM_005123 (RefSeq). Expression and purification of the FXR-LBD: An overnight preculture of a transformed E. coli strain was diluted 1:20 in LB-Ampicillin medium and grown at 30° C. to an optical density of OD600=0.4-0.6. Gene expression was then induced by addition of 0.5 mM IPTG. Cells were incubated an additional 6 h at 30° C., 180 rpm. Cells were collected by centrifugation (7000×g, 7 min, room temperature). Per liter of original cell culture, cells were resuspended in 10 ml lysis buffer (50 mM Glucose, 50 mM Tris pH 7.9, 1 mM EDTA and 4 mg/ml lysozyme) and left on ice for 30 min. Cells were then subjected to sonication and cell debris removed via centrifugation (22000×g, 30 min, 4° C.). Per 10 ml of supernatant 0.5 ml prewashed Glutathione 4B sepharose slurry (Qiagen) was added and the suspension kept slowly rotating for 1 h at 4° C. Glutathione 4B sepharose beads were pelleted by centrifugation (2000 g, 15 sec, 4° C.) and washed twice in wash buffer (25 mM Tris, 50 mM KCl, 4 mM MgCl2 and 1M NaCl). The pellet was resuspended in 3 ml elution buffer per liter of original culture (elution buffer: 20 mM Tris, 60 mM KCl, 5 mM MgCl2 and 80 mM glutathione added immediately prior to use as powder). The suspension was left rotating for 15 min at 4° C., the beads pelleted and eluted again with half the volume of elution buffer than the first time. The eluates were pooled and dialysed overnight in 20 mM Hepes buffer (pH 7.5) containing 60 mM KCl, 5 mM MgCl2 as well as 1 mM dithiothreitol and 10% (v/v) glycerol. The protein was analysed by SDS-Page.
The method measures the ability of putative ligands to modulate the interaction between the purified bacterial expressed FXR ligand binding domain (LBD) and a synthetic biotinylated peptide based on residues 676-700 of SRC-1 (LCD2, 676-700). The sequence of the peptide used was B-[…]-COOH where the N-terminus was biotinylated (B). The ligand binding domain (LBD) of FXR was expressed as fusion protein with GST in BL-21 cells using the vector pDEST15. Cells were lysed by sonication, and the fusion proteins purified over glutathione sepharose (Pharmacia) according to the manufacturers instructions. For screening of compounds for their influence on the FXR-peptide interaction, the Perkin Elmer LANCE technology was applied. This method relies on the binding dependent energy transfer from a donor to an acceptor fluorophor attached to the binding partner of interest. For ease of handling and reduction of background from compound fluorescence LANCE technology makes use of generic fluorophore labels and time resolved detection Assays were done in a final volume of 2 5 μl in a 384 well plate, in a Tris-based buffer (20 mM Tris-HCl pH 7,5; 60 mM KCl, 5 mM MgCl2; 35 ng/μl BSA), containing 20-60 ng/well recombinantly expressed FXR-LBD fused to GST, 200-600 nM N-terminally biotinylated peptide, representing SRC1 aminoacids 676-700, 200 ng/well Streptavidin-xIAPC conjugate(Prozyme) and 6-10 ng/well Eu W1024 antiGST (Perkin Elmer). DMSO content of the samples was kept at 1%. After generation of the assay mix and diluting the potentially FXR modulating ligands, the assay was equilibrated for one hour in the dark at room temperature in FIA-plates black 384 well (Greiner). […]
For orientation: Time-resolved FRET reads energy transfer from a long-lived donor to a nearby acceptor.
The compound `CC(C)c1onc(-c2c(Cl)cccc2Cl)c1COc1ccc(NS(=O)(=O)c2ccc(C(=O)O)cc2)c(C(F)(F)F)n1` [Example 8, 4-{6-[3-(2,6-dichloro-phenyl)-5-isopropyl-isoxazol-4-ylmethoxy]-2-trifluoromethyl-pyridin-3-ylsulfamoyl}-benzoic acid] showed an IC50 of 1000 to 10000 nM.

The compound `CC(C)c1onc(-c2c(Cl)cccc2Cl)c1COc1ccc(N(C)Cc2ccc(C(=O)OCCO)cc2)c(C(F)(F)F)n1` [Example 33, 2-Hydroxyethyl 4-(((6-((3-(2,6-dichlorophenyl)-5-isopropylisoxazol-4-yl)methoxy)-2-(trifluoromethyl)pyridin-3-yl)(methyl)amino)methyl)benzoate] registered an IC50 of no more than 1000 nM.

As for `CC(C)c1onc(-c2c(Cl)cccc2Cl)c1COc1ccc(N(C)Cc2ccc(C(=O)NCCO)cc2)c(C(F)(F)F)n1` [Example 36, 4-(((6-((3-(2,6-Dichlorophenyl)-5-isopropylisoxazol-4-yl)methoxy)-2-(trifluoromethyl)pyridin-3-yl)(methyl)amino)methyl)-N-(2-hydroxyethyl)benzamide], the half-maximal inhibitory concentration (IC50) is no more than 1000 nM.

Regarding `CC(C)c1onc(-c2c(Cl)cccc2Cl)c1COc1ccc(N(C)S(=O)(=O)c2ccc(C(=O)O)cc2)c(C(F)(F)F)n1` [Example 9, 4({6-[3-(2,6-Dichloro-phenyl)-5-isopropyl-isoxazol-4-ylmethoxy]-2-trifluoromethyl-pyridin-3-yl}-methyl-sulfamoyl)-benzoic acid], the IC50 was no more than 1000 nM.

As for `Cc1nc(OCc2c(-c3c(Cl)cccc3Cl)noc2C(C)C)ccc1NS(=O)(=O)c1ccc(C(=O)O)cc1` [Example 3, 4-{6-[3-(2,6-Dichloro-phenyl)-5-isopropyl-isoxazol-4-ylmethoxy]-2-methyl-pyridin-3-ylsulfamoyl}-benzoic acid], the IC50 was no more than 1000 nM.

Compound `CC(C)c1onc(-c2c(Cl)cccc2Cl)c1COc1ccc(N(C)Cc2ccc(C(=O)OCC(O)CO)cc2)c(C(F)(F)F)n1` (centres unmarked) [Example 34, 2,3-Dihydroxypropyl 4-(((6-((3-(2,6-dichlorophenyl)-5-isopropylisoxazol-4-yl)methoxy)-2-(trifluoromethyl)pyridin-3-yl)(methyl)amino)methyl)benzoate] registered a half-maximal inhibitory concentration (IC50) of no more than 1000 nM.

In turn, `CC(C)c1onc(-c2c(Cl)cccc2Cl)c1COc1ccc(N(C)Cc2ccc(C(=O)NCC(O)CO)cc2)c(C(F)(F)F)n1` (centres unmarked) [Example 35, 4-(((6-((3-(2,6-Dichlorophenyl)-5-isopropylisoxazol-4-yl)methoxy)-2-(trifluoromethyl)pyridin-3-yl)(methyl)amino)methyl)-N-(2,3-dihydroxypropyl)benzamide] displayed a concentration for half-maximal inhibition (IC50) of no more than 1000 nM.

Turning to `CC(C)c1onc(-c2c(Cl)cccc2Cl)c1COc1cnc(N(C)Cc2ccc(C(=O)O)cc2)c(Cl)c1` [Example 31, 4-(((3-Chloro-5-((3-(2,6-dichlorophenyl)-5-isopropylisoxazol-4-yl)methoxy)pyridin-2-yl)(methyl)amino)methyl)benzoic acid], the IC50 is no more than 1000 nM.

Compound `COc1nc(OCc2c(-c3c(Cl)cccc3Cl)noc2C(C)C)ccc1N(C)S(=O)(=O)c1ccc(C(=O)O)cc1` [Example 13, 4-({6-[3-(2,6-dichloro-phenyl)-5-isopropyl-isoxazol-4-ylmethoxy]-2-methoxy-pyridin-3-yl}-methyl-sulfamoyl)-benzoic acid] returned a half-inhibitory concentration (IC50) of no more than 1000 nM.

In the case of `CC(C)c1onc(-c2c(Cl)cccc2Cl)c1COc1ccc(N(C)C(=O)c2cccc(C(=O)O)c2)c(C(F)(F)F)n1` [Example 22, 3-((6-((3-(2,6-Dichlorophenyl)-5-isopropylisoxazol-4-yl)methoxy)-2-(trifluoromethyl)pyridin-3-yl)(methyl)carbamoyl)benzoic acid], the IC50 was no more than 1000 nM.

`Cc1onc(-c2c(Cl)cccc2Cl)c1COc1ccc(NC(=O)c2ccc(C(=O)O)cc2)cn1` [Example 16, 4-(6-((3-(2,6-dichlorophenyl)-5-methylisoxazol-4-yl)methoxy)pyridin-3-ylcarbamoyl)benzoic acid]: the half-inhibitory concentration (IC50) was 1000 to 10000 nM.

For the compound `Cc1onc(-c2c(Cl)cccc2Cl)c1COc1ccc(NS(=O)(=O)c2cccc(C(=O)O)c2)cn1` [Example 17, 3-(N-(6-((3-(2,6-dichlorophenyl)-5-methylisoxazol-4-yl)methoxy)pyridin-3-yl)sulfamoyl)benzoic acid], the half-maximal inhibitory concentration (IC50) was 1000 to 10000 nM.

As for `COC(=O)c1ccc(C(=O)Nc2ccc(OCc3c(-c4c(Cl)cccc4Cl)noc3C(C)C)nc2C(F)(F)F)cc1` [Example 5, N-{6-[3-(2,6-dichloro-phenyl)-5-isopropyl-isoxazol-4-ylmethoxy]-2-trifluoromethyl-pyridin-3-yl}-terephthalamic acid methyl ester], the 50% inhibitory concentration (IC50) lay within 1000 to 10000 nM.

On to `Cc1cc(OCc2c(-c3c(Cl)cccc3Cl)noc2C(C)C)ncc1NC(=O)c1ccc(C(=O)O)cc1` [Example 14], for which the concentration for half-maximal inhibition (IC50) is no more than 1000 nM.

Regarding `COC(=O)c1cccc(C(=O)Nc2ccc(OCc3c(-c4c(Cl)cccc4Cl)noc3C(C)C)nc2C(F)(F)F)c1` [Example 20, N-(6-[3-(2,6-Dichloro-phenyl)-5-isopropyl-isoxazol-4-ylmethoxy]-2-trifluoromethyl-pyridin-3-yl)-isophthalamic acid methyl ester], the IC50 lay within 1000 to 10000 nM.

Turning to `Cc1nc(OCc2c(-c3c(Cl)cccc3Cl)noc2C(C)C)ccc1N(C)C(=O)c1ccc(C(=O)O)cc1` [Example 2, 4-((6-((3-(2,6-Dichlorophenyl)-5-isopropylisoxazol-4-yl)methoxy)-2-methylpyridin-3-yl)(methyl)carbamoyl)benzoic acid], the IC50 was no more than 1000 nM.

For the compound `COc1nc(OCc2c(-c3c(Cl)cccc3Cl)noc2C(C)C)ccc1N(C)C(=O)c1ccc(C(=O)O)cc1` [Example 11, N-{6-[3-(2,6-dichloro-phenyl)-5-isopropyl-isoxazol-4-ylmethoxy]-2-methoxy-pyridin-3-yl}-N-methyl-terephthalamic acid], the IC50 lay in the range of 1000 to 10000 nM.

`CC(C)c1onc(-c2c(Cl)cccc2Cl)c1COc1ccc(N(C)Cc2ccc(C(=O)NCCN(C)C)cc2)c(C(F)(F)F)n1` [Example 37, 4-(((6-((3-(2,6-Dichlorophenyl)-5-isopropylisoxazol-4-yl)methoxy)-2-(trifluoromethyl)pyridin-3-yl)(methyl)amino)methyl)-N-(2-(dimethylamino)ethyl)benzamide] yielded an IC50 of no more than 1000 nM.

For the compound `COc1nc(OCc2c(-c3c(Cl)cccc3Cl)noc2C(C)C)ccc1NC(=O)c1ccc(C(=O)O)cc1` [Example 10, N-{6-[3-(2,6-dichloro-phenyl)-5-isopropyl-isoxazol-4-ylmethoxy]-2-methoxy-pyridin-3-yl}-terephthalamic acid], the IC50 is no more than 1000 nM.

`COc1nc(OCc2c(-c3c(Cl)cccc3Cl)noc2C(C)C)ccc1NS(=O)(=O)c1ccc(C(=O)O)cc1` [Example 12, 4-{6[3-(2,6-dichloro-phenyl)-5-isopropyl-isoxazol-4-ylmethoxy]-2-methoxy-pyridin-3-ylsulfamoyl}-benzoic acid] had an IC50 of no more than 1000 nM.
